# Values of other authors as cited in patent publication US20250222014A1, “COMPOSITION FOR LOCALIZED FAT REDUCTION WITHOUT PAIN, EDEMA AND SIDE EFFECTS AND METHOD OF ADMINISTRATION THEREOF” (AMI PHARM CO., LTD., priority 2024, published 2025).
# System: adipocytes (3T3L1 adipocytes), normal fibroblasts, vascular endothelial cells and skeletal muscle cells
# Conditions: Gupta, Aest Plast Sur, 33:346-352, 2009
smiles,measurement,value
"C[C@H](CCC(=O)O)[C@H]1CC[C@H]2[C@@H]3CC[C@@H]4C[C@H](O)CC[C@]4(C)[C@H]3C[C@H](O)[C@]12C [DCA, (4R)-4-[(3R,5R,8R,9S,10S,12S,13R,14S,17R)-3,12-dihydroxy-10,13-dimethyl-2,3,4,5,6,7,8,9,11,12,14,15, 16,17-tetradecahydro-1H-cyclopenta[a]phenanthren-17-yl] pentanoic acid]",cell lysis selectivity (cell-lytic rather than fat-dissolving),"non-selectively dissolves not only adipocytes (3T3L1 adipocytes) but also normal fibroblasts, vascular endothelial cells and skeletal muscle cells"
